Tests used:
VCaP [1] = assay: Cytotoxicity against human VCaP cells assessed as growth inhibition at 0.5 uM after 4 days by CCK8 assay relative to control; format: functional; settings: 96 h, time 4 day, read-out: GI
VCaP [2] = assay: Cytotoxicity against human VCaP cells assessed as growth inhibition at 0.25 uM after 4 days by CCK8 assay relative to control; format: functional; settings: 96 h, time 4 day, read-out: GI
VCaP [3] = assay: Cytotoxicity against human VCaP cells assessed as growth inhibition at 1 uM after 4 days by CCK8 assay relative to control; format: functional; settings: 96 h, time 4 day, read-out: GI
VCaP [4] = assay: Cytotoxicity against human VCaP cells assessed as growth inhibition at 0.125 uM after 4 days by CCK8 assay relative to control; format: functional; settings: 96 h, time 4 day, read-out: GI
VCaP [5] = assay: Cytotoxicity against human VCaP cells assessed as growth inhibition after 4 days by CCK8 assay; format: functional, cell-based; settings: dose 0.032-4 µM, time 4.0 day
VCaP [6] = assay: Cytotoxicity against human VCaP cells assessed as growth inhibition at 4 uM after 4 days by CCK8 assay relative to control; format: functional; settings: 96 h, time 4 day, read-out: GI
VCaP [7] = assay: Cytotoxicity against human VCaP cells assessed as growth inhibition at 0.8 uM after 4 days by CCK8 assay relative to control; format: functional; settings: 96 h, time 4 day, read-out: GI

Structure (SMILES) | inhibition of growth at 0.5 µM (VCaP [1]) | inhibition of growth at 0.25 µM (VCaP [2]) | inhibition of growth at 1 µM (VCaP [3]) | inhibition of growth at 0.125 µM (VCaP [4]) | growth inhibition (GI) (VCaP [5]) | inhibition of growth at 4 µM (VCaP [6]) | inhibition of growth at 0.8 µM (VCaP [7])
Cc1ncsc1-c1ccc(CNC(=O)[C@@H]2C[C@@H](O)CN2C(=O)[C@@H](NC(=O)CN2CCN(c3ccc(C(=O)N4[C@@H]5CC[C@H]4C[C@@H](Oc4ccc(C#N)c(Cl)c4)C5)cc3)CC2)C(C)(C)C)cc1 | 35.1% | 5.65% | 86.7% |  |  |  | 
Cc1ncsc1-c1ccc(CNC(=O)[C@@H]2C[C@@H](O)CN2C(=O)[C@@H](NC(=O)COCCN2CCN(c3ccc(C(=O)N4[C@@H]5CC[C@H]4C[C@@H](Oc4ccc(C#N)c(Cl)c4)C5)cc3)CC2)C(C)(C)C)cc1 | 56.6% | 31.1% | 64.6% | 18.5% |  |  | 
C[C@@]12C[C@H](NC(=O)c3ccc(N4CCN(CCCCCCNc5ccc6c(c5)C(=O)N(C5CCC(=O)NC5=O)C6=O)CC4)cc3)C[C@]1(C)C[C@@H](Oc1ccc(C#N)c(Cl)c1)C2 (some centres undefined) | 34.5% | 31.8% | 35.3% | 30.7% |  |  | 
C[C@@]12C[C@H](NC(=O)c3ccc(N4CCN(CCCCCCCCCNc5ccc6c(c5)C(=O)N(C5CCC(=O)NC5=O)C6=O)CC4)cc3)C[C@]1(C)C[C@@H](Oc1ccc(C#N)c(Cl)c1)C2 (some centres undefined) | 24.3% | 18% | 25% |  |  |  | 
Cc1ncsc1-c1ccc([C@H](C)NC(=O)[C@@H]2C[C@@H](O)CN2C(=O)[C@@H](NC(=O)COCCN2CCN(c3ccc(C(=O)N4[C@@H]5CC[C@H]4C[C@@H](Oc4ccc(C#N)c(Cl)c4)C5)nn3)CC2)C(C)(C)C)cc1 | 12.5% | 6.65% | 28.1% |  |  |  | 
N#Cc1ccc(O[C@H]2C[C@H]3CC[C@@H](C2)N3C(=O)c2cnc(N3CCN(CCCCCCNc4cccc5c4C(=O)N(C4CCC(=O)NC4=O)C5=O)CC3)nc2)cc1Cl (some centres undefined) | 32.1% | 23.5% | 40.5% | 10.1% | Dose-dependent effect |  | 
N#Cc1ccc(O[C@H]2C[C@H]3CC[C@@H](C2)N3C(=O)c2cnc(N3CCN(CCCCCNc4cccc5c4C(=O)N(C4CCC(=O)NC4=O)C5=O)CC3)nc2)cc1Cl (some centres undefined) | 30.1% | 24.6% | 36.9% | 20% | Dose-dependent effect |  | 
Cc1ncsc1-c1ccc([C@H](C)NC(=O)[C@@H]2C[C@@H](O)CN2C(=O)[C@@H](NC(=O)COCCN2CCN(c3cnc(C(=O)N4[C@@H]5CC[C@H]4C[C@@H](Oc4ccc(C#N)c(Cl)c4)C5)cn3)CC2)C(C)(C)C)cc1 | 61.5% | 52% | 72.3% | 42.4% |  |  | 
C[C@@]12C[C@H](NC(=O)c3ccc(N4CCN(CCCCCCCNc5ccc6c(c5)C(=O)N(C5CCC(=O)NC5=O)C6=O)CC4)cc3)C[C@]1(C)C[C@@H](Oc1ccc(C#N)c(Cl)c1)C2 (some centres undefined) | 14.3% | 14% | 14.8% | 7.46% |  |  | 
N#Cc1ccc(O[C@H]2C[C@H]3CC[C@@H](C2)N3C(=O)c2cnc(N3CCN(CCCCCCCNc4ccc5c(c4)C(=O)N(C4CCC(=O)NC4=O)C5=O)CC3)nc2)cc1Cl (some centres undefined) | 35.2% | 30.7% | 30.4% | 28.1% |  |  | 
Cc1ncsc1-c1ccc([C@H](CC(=O)NCCCCCCCN2CCN(c3ccc(C(=O)N4[C@@H]5CC[C@H]4C[C@@H](Oc4ccc(C#N)c(Cl)c4)C5)cc3)CC2)NC(=O)[C@H]2C[C@H](O)CN2C(=O)[C@H](NC(=O)C2(F)CC2)C(C)(C)C)cc1 | 14.5% | 2.18% | 29.8% |  |  |  | 
Cc1ncsc1-c1ccc(CNC(=O)[C@@H]2C[C@@H](O)CN2C(=O)[C@@H](NC(=O)CCN2CCN(c3ccc(C(=O)N4[C@@H]5CC[C@H]4C[C@@H](Oc4ccc(C#N)c(Cl)c4)C5)cc3)CC2)C(C)(C)C)cc1 | 18.2% | 2.74% | 61.2% | 1.87% |  |  | 
N#Cc1ccc(O[C@H]2C[C@H]3CC[C@@H](C2)N3C(=O)c2cnc(N3CCN(CCCCCCNc4ccc5c(c4)C(=O)N(C4CCC(=O)NC4=O)C5=O)CC3)nc2)cc1Cl (some centres undefined) | 37.8% | 36.3% | 38.9% | 31.7% |  |  | 
N#Cc1ccc(O[C@H]2C[C@H]3CC[C@@H](C2)N3C(=O)c2cnc(N3CCN(CCCCCNc4ccc5c(c4)C(=O)N(C4CCC(=O)NC4=O)C5=O)CC3)nc2)cc1Cl (some centres undefined) | 34.2% | 31.4% | 34.9% | 20.4% |  |  | 
C[C@@]12C[C@H](NC(=O)c3ccc(N4CCN(CCCCCCCCNc5ccc6c(c5)C(=O)N(C5CCC(=O)NC5=O)C6=O)CC4)cc3)C[C@]1(C)C[C@@H](Oc1ccc(C#N)c(Cl)c1)C2 (some centres undefined) | 24.6% | 19.5% | 26% | 6.05% |  |  | 
Cc1ncsc1-c1ccc([C@H](C)NC(=O)[C@@H]2C[C@@H](O)CN2C(=O)[C@@H](NC(=O)COCCN2CCN(c3ccc(C(=O)N4[C@@H]5CC[C@H]4C[C@@H](Oc4ccc(C#N)c(Cl)c4)C5)cn3)CC2)C(C)(C)C)cc1 | 63.6% | 7.23% | 72.5% | 28.4% |  |  | 
Cc1ncsc1-c1ccc([C@H](CC(=O)NCCCCCCCCCN2CCN(c3ccc(C(=O)N4[C@@H]5CC[C@H]4C[C@@H](Oc4ccc(C#N)c(Cl)c4)C5)cc3)CC2)NC(=O)[C@H]2C[C@H](O)CN2C(=O)[C@H](NC(=O)C2(F)CC2)C(C)(C)C)cc1 | 29% | 15.9% | 55.2% | 5.34% |  |  | 
C[C@@]12C[C@H](NC(=O)c3ccc(N4CCN(CCCCCNc5ccc6c(c5)C(=O)N(C5CCC(=O)NC5=O)C6=O)CC4)cc3)C[C@]1(C)C[C@@H](Oc1ccc(C#N)c(Cl)c1)C2 (some centres undefined) | 38.1% | 30.3% | 44.5% | 24.1% |  |  | 
Cc1ncsc1-c1ccc([C@H](C)NC(=O)[C@@H]2C[C@@H](O)CN2C(=O)[C@@H](NC(=O)COCCN2CCN(c3ccc(C(=O)N4[C@@H]5CC[C@H]4C[C@@H](Oc4ccc(C#N)c(Cl)c4)C5)nc3)CC2)C(C)(C)C)cc1 | 33.9% | 25.6% | 43.2% | 18.8% |  |  | 
N#Cc1ccc(O[C@H]2C[C@H]3CC[C@@H](C2)N3C(=O)c2cnc(N3CCN(CCCCCCCNc4cccc5c4C(=O)N(C4CCC(=O)NC4=O)C5=O)CC3)nc2)cc1Cl (some centres undefined) | 28.3% | 27.4% | 37.5% | 26.7% | Dose-dependent effect |  | 
N#Cc1ccc(O[C@H]2C[C@H]3CC[C@@H](C2)N3C(=O)c2cnc(N3CCN(CCCNc4ccc5c(c4)C(=O)N(C4CCC(=O)NC4=O)C5=O)CC3)nc2)cc1Cl (some centres undefined) | 30.1% | 25.6% | 42.4% | 17.1% |  |  | 
Cc1ncsc1-c1ccc([C@H](C)NC(=O)[C@@H]2C[C@@H](O)CN2C(=O)[C@@H](NC(=O)COCCN2CCN(c3ccc(C(=O)N4[C@@H]5CC[C@H]4C[C@@H](Oc4ccc(C#N)c(Cl)c4)C5)cc3)CC2)C(C)(C)C)cc1 | 70.6% | 61.8% | 76.2% | 45% |  |  | 
N#Cc1ccc(O[C@H]2C[C@H]3CC[C@@H](C2)N3C(=O)c2ccc(N3CCN(CCCCCCCCCOc4cccc5c4C(=O)N(C4CCC(=O)NC4=O)C5=O)CC3)cc2)cc1Cl (some centres undefined) |  |  |  |  | Dose-dependent effect | 30.6% | 21.9%
CN1CCC(N2CCC(C#Cc3ccc(C(=O)N4[C@@H]5CC[C@H]4C[C@@H](Oc4ccc(C#N)c(Cl)c4)C5)cc3)CC2)CC1 | 30.1% | 23.3% | 34% | 14.9% |  |  | 
N#Cc1ccc(O[C@H]2C[C@H]3CC[C@@H](C2)N3C(=O)c2cnc(N3CCN(CCCCNc4ccc5c(c4)C(=O)N(C4CCC(=O)NC4=O)C5=O)CC3)nc2)cc1Cl (some centres undefined) | 36.5% | 22.2% | 53.1% | 10.2% |  |  | 
Cc1ncsc1-c1ccc([C@H](CC(=O)NCCCCCCCCN2CCN(c3ccc(C(=O)N4[C@@H]5CC[C@H]4C[C@@H](Oc4ccc(C#N)c(Cl)c4)C5)cc3)CC2)NC(=O)[C@H]2C[C@H](O)CN2C(=O)[C@H](NC(=O)C2(F)CC2)C(C)(C)C)cc1 | 24.1% | 11.3% | 44.7% |  |  |  | 
N#Cc1ccc(O[C@H]2C[C@H]3CC[C@@H](C2)N3C(=O)c2cnc(N3CCN(CCCNc4cccc5c4C(=O)N(C4CCC(=O)NC4=O)C5=O)CC3)nc2)cc1Cl (some centres undefined) | 9.74% |  | 30.4% |  | Dose-dependent effect |  | 
N#Cc1ccc(O[C@H]2C[C@H]3CC[C@@H](C2)N3C(=O)c2cnc(N3CCN(CCCCNc4cccc5c4C(=O)N(C4CCC(=O)NC4=O)C5=O)CC3)nc2)cc1Cl (some centres undefined) | 44.4% | 29% | 50.4% | 19% | Dose-dependent effect |  | 

Source: ChEMBL document CHEMBL4732247, “Discovery of A031 as effective proteolysis targeting chimera (PROTAC) androgen receptor (AR) degrader for the treatment of prostate cancer” (Eur J Med Chem, 2021)
